Consider 1 molecule from patent publication US20120189758A1, “Flavour Enhancement” (priority 2009, published 2012).

The structures appear in SMILES notation.

Assay [1] can be described thus: Taste comparison of model savoury base, GABA solution and base plus GABA (Example 2). As to conditions: 4 experienced tasters; base: 5000 ppm table salt, 150 ppm MSG, 75 ppm IMP/GMP; GABA 10 ppm. The protocol: A model savoury solution containing 5000 ppm table salt, 150 ppm MSG and 75 ppm IMP/GMP was used as a base.
Another solution was prepared containing 10 ppm GABA.
In a third solution, 10 ppm GABA was added to the base solution.
The solutions were compared by a small group of experienced tasters (3 male, 1 female).
The base solution was described as salty and umami. The GABA solution was tasteless. All members of the group preferred the third solution over the first one and judged to be noticeably different from the base.

Assay [2] in a line: GABA concentration series in reference savoury solution, tasted for umami enhancement (Example 4). As to conditions: 5000 ppm table salt, 15 ppm MSG, 75 ppm IMP/GMP. As to the method:
A reference solution containing 5000 ppm table salt, 15 ppm MSG and 75 ppm IMP/GMP was prepared. To different parts of this solution 5, 10, 15, 20, and 25 ppm GABA was added. The solutions were tasted by a small group of experienced tasters (3 male, 1 female). […] 15 ppm of GABA was the flavoured sample in comparison to the target.

As for `NCCCC(=O)O` [GABA, γ-amino butyric acid], the taste description result in assay [1] was “tasteless”. The “GABA concentration of the flavoured (favoured) sample in comparison to the target” value in assay [2] was found to be 15 ppm.
